Test results published in patent US20190367516A1 (Bayer Pharma Aktiengesellschaft, priority 2015, published 2019).
Where two headings read alike, the source gives them in different places.

How the values were obtained:
human M2 receptor [1] = molecular target: T1, human M2 receptor (Homo sapiens, UniProt P08172); conditions: for Emax: read-out: Efficiency, boosting of the acetylcholine effect at EC20 acetylcholine concentration; for Efficiency: boosting of the acetylcholine effect at EC20 acetylcholine concentration
T1 sequence (P08172 1-466): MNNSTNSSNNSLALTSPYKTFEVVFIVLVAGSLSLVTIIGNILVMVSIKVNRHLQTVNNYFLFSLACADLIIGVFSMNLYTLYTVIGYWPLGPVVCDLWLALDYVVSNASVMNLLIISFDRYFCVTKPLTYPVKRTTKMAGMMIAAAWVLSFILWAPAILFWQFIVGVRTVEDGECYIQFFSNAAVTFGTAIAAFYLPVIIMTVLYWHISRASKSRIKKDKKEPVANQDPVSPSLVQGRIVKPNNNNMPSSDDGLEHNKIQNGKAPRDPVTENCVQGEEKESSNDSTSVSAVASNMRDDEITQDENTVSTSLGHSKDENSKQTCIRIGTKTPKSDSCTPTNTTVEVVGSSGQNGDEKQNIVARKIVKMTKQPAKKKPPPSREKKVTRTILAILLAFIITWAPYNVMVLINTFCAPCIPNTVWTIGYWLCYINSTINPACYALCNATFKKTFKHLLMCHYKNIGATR

human M2 receptor [2] = molecular target: T1, human M2 receptor; format: cell-based; conditions: α >1 = positive cooperativity
[3] = Receptor activity EC50, allosteric potency at EC20 acetylcholine, M2-GIRK1/4 reporter cells, in some cases mean of two or more determinations
[4] = shift of acetylcholine dose-response curve (Allosteric EC50 shift)
[5] = Receptor activity EC50, M2-GIRK1/4 activation test, acetylcholine at EC20, allosteric potency, in some cases mean values from two or more determinations
[6] = shift in the acetylcholine dose-response curve (Allosteric EC50 shift, GraphPad PRISM)

With C[C@H](O)CN(C)c1ccc2c(=O)c(C(=O)N[C@@H](C3CC3)C(F)(F)F)cn(-c3c(F)cc(F)cc3F)c2n1 [Example 493] the EC50 (human M2 receptor [1]; [3]) was 16 nM, the Emax (human M2 receptor [1]; M2-GIRK1/4 reporter cells) was 94.5% and the “Cooperativity (alpha factor)” value (human M2 receptor [2]; [4]) was 14.

CC(NC(=O)c1cn(-c2c(F)cc(F)cc2F)c2nc(N3C[C@@H](O)CC3=O)ccc2c1=O)(C1CC1)C(F)(F)F (single isomer, unassigned) [Example 510] was tested, and the EC50 (human M2 receptor [1]; [3]) was 6 nM, the Efficiency (human M2 receptor [1]; M2-GIRK1/4 reporter cells) was 94.0% and the “Cooperativity (alpha factor)” value (human M2 receptor [2]; [4]) was 46.

CC(C)C(NC(=O)c1cn(-c2c(F)cc(F)cc2F)c2nc(N3C[C@@H](O)CC3=O)ccc2c1=O)C(C)C [Example 475, N-(2,4-Dimethylpentan-3-yl)-7-[(4S)-4-hydroxy-2-oxopyrrolidin-1-yl]-4-oxo-1-(2,4,6-trifluorophenyl)-1,4-dihydro-1,8-naphthyridine-3-carboxamide] was tested, and the EC50 (human M2 receptor [1]; [3]) was 2 nM, the Emax (human M2 receptor [1]; M2-GIRK1/4 reporter cells) was 100% and the “Cooperativity (alpha factor)” value (human M2 receptor [2]; [4]) was 68.

CC[C@@H](NC(=O)c1cn(-c2ccc(F)cc2F)c2nc(N3CCC3=O)ccc2c1=O)C(F)(F)F [Example 205, 1-(2,4-Difluorophenyl)-4-oxo-7-(2-oxoazetidin-1-yl)-N-[(2R)-1,1,1-trifluorobutan-2-yl]-1,4-dihydro-1,8-naphthyridine-3-carboxamide] was tested, and the EC50 (human M2 receptor [1]; [5]) was 105 nM and the “Cooperativity (alpha factor)” value (human M2 receptor [2]; [6]) was 4.

O=C(NC12CC(C1)C2)c1cn(-c2c(F)cc(F)cc2Cl)c2nc(N3C[C@@H](O)CC3=O)ccc2c1=O [Example 396, N-(Bicyclo[1.1.1]pent-1-yl)-1-(2-chloro-4,6-difluorophenyl)-7-[(4S)-4-hydroxy-2-oxopyrrolidin-1-yl]-4-oxo-1,4-dihydro-1,8-naphthyridine-3-carboxamide] was tested, and the EC50 (human M2 receptor [1]; [3]) was 17 nM, the Emax (human M2 receptor [1]; M2-GIRK1/4 reporter cells) was 92% and the “Cooperativity (alpha factor)” value (human M2 receptor [2]; [4]) was 29.

With CC[C@@H](NC(=O)c1cn(-c2ccc(F)cc2F)c2nc(N3CCC(C)(F)C3)ccc2c1=O)C(F)(F)F (mixture of isomers) [Example 30, 1-(2,4-Difluorophenyl)-7-(3-fluoro-3-methylpyrrolidin-1-yl)-4-oxo-N-[(2R)-1,1,1-trifluorobutan-2-yl]-1,4-dihydro-1,8-naphthyridine-3-carboxamide (diastereomer mixture)] the EC50 (human M2 receptor [1]; [5]) was 95 nM and the “Cooperativity (alpha factor)” value (human M2 receptor [2]; [6]) was 11.

CCC(COC(F)(F)F)NC(=O)c1cn(-c2c(F)cc(F)cc2F)c2nc(N3C[C@@H](O)CC3=O)ccc2c1=O (mixture of isomers) [Example 410, 7-[(4S)-4-Hydroxy-2-oxopyrrolidin-1-yl]-4-oxo-N-[1-(trifluoromethoxy)butan-2-yl]-1-(2,4,6-trifluorophenyl)-1,4-dihydro-1,8-naphthyridine-3-carboxamide] was tested, and the EC50 (human M2 receptor [1]; [3]) was 9 nM, the Emax (human M2 receptor [1]; M2-GIRK1/4 reporter cells) was 87% and the “Cooperativity (alpha factor)” value (human M2 receptor [2]; [4]) was 36.

In the case of CN(CCF)c1ccc2c(=O)c(C(=O)NC(C(F)(F)F)C(F)(F)F)cn(-c3ccc(F)cc3F)c2n1 [Example 111, 1-(2,4-Difluorophenyl)-7-[(2-fluoroethyl)(methyl)amino]-N-(1,1,1,3,3,3-hexafluoropropan-2-yl)-4-oxo-1,4-dihydro-1,8-naphthyridine-3-carboxamide], the EC50 (human M2 receptor [1]; [5]) is reported as 35 nM and the “Cooperativity (alpha factor)” value (human M2 receptor [2]; [6]) is reported as 26.

With CC(COC(F)(F)F)NC(=O)c1cn(-c2ccc(F)cc2F)c2nc(N3CC[C@H](F)C3)ccc2c1=O (mixture of isomers) [Example 227, 1-(2,4-Difluorophenyl)-7-[(3S)-3-fluoropyrrolidin-1-yl]-4-oxo-N-[1-(trifluoromethoxy)propan-2-yl]-1,4-dihydro-1,8-naphthyridine-3-carboxamide] the EC50 (human M2 receptor [1]; [5]) was 73 nM and the “Cooperativity (alpha factor)” value (human M2 receptor [2]; [6]) was 14.

In the case of CC[C@@H](NC(=O)c1cn(-c2ccc(F)cc2F)c2nc(N3CC4CC4(O)C3)ccc2c1=O)C(F)(F)F (single isomer, unassigned) [Example 315], the EC50 (human M2 receptor [1]; [5]) is reported as 38 nM and the “Cooperativity (alpha factor)” value (human M2 receptor [2]; [6]) is reported as 25.

With O=C(NC(c1ccccc1Cl)C(F)(F)F)c1cn(-c2ccc(F)cc2F)c2nc(N3C[C@@H](O)CC3=O)ccc2c1=O (mixture of isomers) [Example 211, N-[1-(2-Chlorophenyl)-2,2,2-trifluoroethyl]-1-(2,4-difluorophenyl)-7-[(4S)-4-hydroxy-2-oxopyrrolidin-1-yl]-4-oxo-1,4-dihydro-1,8-naphthyridine-3-carboxamide] the EC50 (human M2 receptor [1]; [5]) was 21 nM and the “Cooperativity (alpha factor)” value (human M2 receptor [2]; [6]) was 35.

With O=C(NC(c1ccccc1Cl)C(F)(F)F)c1cn(-c2c(F)cc(F)cc2F)c2nc(N3C[C@@H](O)[C@H](O)C3)ccc2c1=O (single isomer, unassigned) [Example 561] the EC50 (human M2 receptor [1]; [3]) was 4 nM, the Emax (human M2 receptor [1]; M2-GIRK1/4 reporter cells) was 95% and the “Cooperativity (alpha factor)” value (human M2 receptor [2]; [4]) was 62.

With CC1(F)CCN(c2ccc3c(=O)c(C(=O)NC45CC6CC(CC(C6)C4)C5)cn(-c4ccc(F)cc4F)c3n2)C1 (racemic) [Example 9, rac-1-(2,4-Difluorophenyl)-7-(3-fluoro-3-methylpyrrolidin-1-yl)-4-oxo-N-(tricyclo[3.3.1.1^3,7]dec-1-yl)-1,4-dihydro-1,8-naphthyridine-3-carboxamide] the EC50 (human M2 receptor [1]; [5]) was 40 nM and the “Cooperativity (alpha factor)” value (human M2 receptor [2]; [6]) was 11.

CCC(NC(=O)c1cn(-c2ccc(F)cc2F)c2nc(N3CCN(C(=O)OC)CC3)ccc2c1=O)C(F)(F)F (single isomer, unassigned; enantiomer a) [Example 24, ent-Methyl 4-{8-(2,4-difluorophenyl)-5-oxo-6-[(1,1,1-trifluorobutan-2-yl)carbamoyl]-5,8-dihydro-1,8-naphthyridin-2-yl}piperazine-1-carboxylate (Enantiomer A)] was tested, and the EC50 (human M2 receptor [1]; [5]) was 63 nM and the “Cooperativity (alpha factor)” value (human M2 receptor [2]; [6]) was 25.

CC[C@@H](NC(=O)c1cn(-c2c(F)cccc2Cl)c2nc(N3CC4CC4(O)C3)ccc2c1=O)C(F)(F)F (mixture of isomers) [Example 310, 1-(2-Chloro-6-fluorophenyl)-7-[1-hydroxy-3-azabicyclo[3.1.0]hex-3-yl]-4-oxo-N-[(2R)-1,1,1-trifluorobutan-2-yl]-1,4-dihydro-1,8-naphthyridine-3-carboxamide] was tested, and the EC50 (human M2 receptor [1]; [5]) was 14 nM and the “Cooperativity (alpha factor)” value (human M2 receptor [2]; [6]) was 21.

CN(C)c1ccc2c(=O)c(C(=O)Nc3ccccc3C(F)(F)F)cn(-c3ccc(F)cc3F)c2n1 [Example 57, 1-(2,4-Difluorophenyl)-7-(dimethylamino)-4-oxo-N-[2-(trifluoromethyl)phenyl]-1,4-dihydro-1,8-naphthyridine-3-carboxamide] was tested, and the EC50 (human M2 receptor [1]; [5]) was 82 nM and the “Cooperativity (alpha factor)” value (human M2 receptor [2]; [6]) was 7.

CC(COC(F)(F)F)NC(=O)c1cn(-c2ccc(F)cc2F)c2nc(N3CC[C@H](F)C3)ccc2c1=O (single isomer, unassigned) [Example 229] was tested, and the EC50 (human M2 receptor [1]; [5]) was 52 nM and the “Cooperativity (alpha factor)” value (human M2 receptor [2]; [6]) was 13.

For O=C(N[C@@H](C1CC1)C(F)(F)F)c1cn(-c2c(F)cc(F)cc2Cl)c2nc(N3C[C@@H](O)CC3=O)ccc2c1=O [Example 338, 1-(2-Chloro-4,6-difluorophenyl)-N-[(1 S)-1-cyclopropyl-2,2,2-trifluoroethyl]-7-[(4S)-4-hydroxy-2-oxopyrrolidin-1-yl]-4-oxo-1,4-dihydro-1,8-naphthyridine-3-carboxamide], the EC50 (human M2 receptor [1]; [5]) was 7 nM and the “Cooperativity (alpha factor)” value (human M2 receptor [2]; [6]) was 24.

With O=C(NC12CC(C1)C2)c1cn(-c2c(F)cc(F)cc2F)c2nc(N3C[C@@H](O)[C@H](O)C3)ccc2c1=O [Example 366, N-(Bicyclo[1.1.1]pent-1-yl)-7-[(3R,4R)-3,4-dihydroxypyrrolidin-1-yl]-4-oxo-1-(2,4,6-trifluorophenyl)-1,4-dihydro-1,8-naphthyridine-3-carboxamide] the EC50 (human M2 receptor [1]; [5]) was 35 nM and the “Cooperativity (alpha factor)” value (human M2 receptor [2]; [6]) was 36.

In the case of CC[C@H](NC(=O)c1cn(-c2c(F)cc(F)cc2Cl)c2nc(N3C[C@@H](O)CC3=O)ccc2c1=O)C(F)(F)F (single isomer, unassigned) [Example 399], the EC50 (human M2 receptor [1]; [3]) is reported as 40 nM, the Emax (human M2 receptor [1]; M2-GIRK1/4 reporter cells) is reported as 96.5% and the “Cooperativity (alpha factor)” value (human M2 receptor [2]; [4]) is reported as 11.

For CC(COC(F)(F)F)NC(=O)c1cn(-c2ccc(F)cc2F)c2nc(N(C)C)ccc2c1=O (racemic) [Example 231, 1-(2,4-Difluorophenyl)-7-(dimethylamino)-4-oxo-N-[1-(trifluoromethoxy)propan-2-yl]-1,4-dihydro-1,8-naphthyridine-3-carboxamide], the EC50 (human M2 receptor [1]; [5]) was 120 nM and the “Cooperativity (alpha factor)” value (human M2 receptor [2]; [6]) was 12.

With CC(C)C(NC(=O)c1cn(-c2c(F)cc(F)cc2F)c2nc(N3CCNC3=O)ccc2c1=O)C(F)(F)F (racemic) [Example 538, 4-Oxo-7-(2-oxoimidazolidin-1-yl)-N-[1,1,1-trifluoro-3-methylbutan-2-yl]-1-(2,4,6-trifluorophenyl)-1,4-dihydro-1,8-naphthyridine-3-carboxamide] the EC50 (human M2 receptor [1]; [3]) was 7 nM, the Efficiency (human M2 receptor [1]; M2-GIRK1/4 reporter cells) was 100.0% and the “Cooperativity (alpha factor)” value (human M2 receptor [2]; [4]) was 40.

O=C(NC12CC3CC(CC(C3)C1)C2)c1cn(-c2ccc(F)cc2F)c2nc(N3CC4C(C3)C4(F)F)ccc2c1=O (stereo not drawn) [Example 2, 7-(6,6-Difluoro-3-azabicylco[3.1.0]hex-3-yl)-1-(2,4-difluorophenyl)-4-oxo-N-(tricyclo[3.3.1.1^3,7]dec-1-yl)-1,4-dihydro-1,8-naphthyridine-3-carboxamide] was tested, and the EC50 (human M2 receptor [1]; [5]) was 17 nM and the “Cooperativity (alpha factor)” value (human M2 receptor [2]; [6]) was 24.
